Among the data in BindingDB's records for doi:10.1021/jm034088d (Abbott Laboratories, 2003) are Ki values, retold here.

In general, pKi refers to −log10 of the Ki, conventionally taken in molar units. Read a low pKi as a large Ki.

This assay deals with Tyrosine-protein phosphatase non-receptor type 11, SHP-2 (Homo sapiens) (UniProt Q06124). Briefly: Inhibitory activity against SH-domain containing phosphotyrosine phosphatase-2 (Tyrosine phosphatase SHP2) was determined.

pKi: −log10 of the molar value. A value given as a limit tells only on which side of the number the result lay.

Chain of Tyrosine-protein phosphatase non-receptor type 11, SHP-2 (Homo sapiens) (Q06124 whole entry, looked up): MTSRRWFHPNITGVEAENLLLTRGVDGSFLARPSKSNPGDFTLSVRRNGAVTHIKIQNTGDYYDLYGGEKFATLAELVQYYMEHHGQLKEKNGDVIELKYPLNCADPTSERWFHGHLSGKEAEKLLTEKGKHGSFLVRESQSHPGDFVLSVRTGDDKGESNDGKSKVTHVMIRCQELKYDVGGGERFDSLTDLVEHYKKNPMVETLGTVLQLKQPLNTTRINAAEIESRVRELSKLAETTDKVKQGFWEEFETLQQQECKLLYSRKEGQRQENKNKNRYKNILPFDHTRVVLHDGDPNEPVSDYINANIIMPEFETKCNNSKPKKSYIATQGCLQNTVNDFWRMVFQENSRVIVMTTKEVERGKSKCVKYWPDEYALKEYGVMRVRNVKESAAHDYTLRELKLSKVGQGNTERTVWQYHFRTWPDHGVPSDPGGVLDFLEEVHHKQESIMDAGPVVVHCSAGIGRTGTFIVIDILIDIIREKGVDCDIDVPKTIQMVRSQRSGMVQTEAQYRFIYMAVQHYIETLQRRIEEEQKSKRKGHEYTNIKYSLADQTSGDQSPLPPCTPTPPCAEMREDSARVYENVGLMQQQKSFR

For the compound `CCc1cc(CC(NC(C)=O)C(=O)NCCCCOc2cc(Cl)cc(O)c2C(=O)OC)ccc1N(C(=O)C(=O)O)c1ccccc1C(=O)O` (configuration not stated) [2-[4-(2-Acetylamino-3-{4-[(2-carboxy-phenyl)-oxalyl-amino]-3-ethyl-phenyl}-propionylamino)-butoxy]-4-chloro-6-hydroxy-benzoic acid methyl ester], the pKi is less than 5.52.

`C=CCOC(=O)N[C@@H](Cc1ccc(N(C(=O)C(=O)O)c2ccccc2C(=O)O)cc1)C(=O)NCCCCOc1cccc(O)c1C(=O)OC` [(S)-2-(N-(4-(2-(allyloxycarbonylamino)-3-(4-(3-hydroxy-2-(methoxycarbonyl)phenoxy)butylamino)-3-oxopropyl)phenyl)-1-carboxyformamido)benzoic acid]: the pKi is 4.02.
